Molecules are shown by their SMILES. ≈ marks a conversion by molar mass, not a printed value. Like-named read-outs stand apart in the source and are kept apart here.

Data set [1] has as its system mice. Particulars: p.o.; cited from earlier work.
For data set [2] the following is noted: via the urinary tract or by enzymatic metabolism in the liver; cited from earlier work.
Data set [3] relates to cats. Particulars: p.o.; cited from earlier work.
Data set [4] has as its system C. difficile clinical isolates. Nature of the data set: MIC determination by microbroth dilution per CLSI guideline (Example 1). It counts as cell-based, Clostridium difficile. Particulars: Clostridioides difficile. A general note: In broth dilution the organism is exposed to a series of concentrations in liquid medium.
The conditions of data set [5]: cited from earlier work.
For data set [6], the system named is C. difficile clinical isolates. Particulars: C. difficile strain ATCC 700057, reference control; cited from earlier work.
Data set [7] deals with C. difficile. Particulars: published data (footnote a); cited from earlier work.

In general, LD50 refers to the dose expected to kill half of the subjects tested. The MIC is the lowest concentration found to suppress growth. In general, MIC90 refers to the lowest concentration that inhibits either 90% of growth or 90% of the strains tested, depending on the study. Consider `O=C(Nc1ccc([N+](=O)[O-])cc1Cl)c1cc(Cl)ccc1O` [Niclosamide, 2′,5-dichloro-4′-nitrosalicylanilide], for which the LD50 in data set [1] is recorded as > 5000 mg/kg; in data set [3] it was > 1000 mg/kg. Further, in data set [2], the “clearance from the bloodstream” value is “quickly cleared”. For the same molecule, the MIC was 0.125 µg/mL in data set [4] (isolate 7-5085357, read-out: MIC of clinical isolates of C. difficile); 0.25 µg/mL in data set [4] (isolate 7-5779928, read-out: MIC of clinical isolates of C. difficile); 0.25 µg/mL in data set [4] (isolate 7-6008526, read-out: MIC of clinical isolates of C. difficile); 0.06 µg/mL in data set [4] (isolate 7-6011209, read-out: MIC of clinical isolates of C. difficile); 0.25 µg/mL in data set [4] (isolate 7-6778909, read-out: MIC of clinical isolates of C. difficile); 0.125 µg/mL in data set [4] (isolate 7-6854508, read-out: MIC of clinical isolates of C. difficile). Also, the MIC in data set [4] (isolate 7-6870430, read-out: MIC of clinical isolates of C. difficile) is 0.25 µg/mL; in data set [4] (isolate 7-7104022, read-out: MIC of clinical isolates of C. difficile), 0.125 µg/mL; in data set [4] (isolate 7-7116411, read-out: MIC of clinical isolates of C. difficile), 0.125 µg/mL; in data set [4] (isolate 7-7124449, read-out: MIC of clinical isolates of C. difficile), 0.125 µg/mL; in data set [4] (isolate 7-7149204, read-out: MIC of clinical isolates of C. difficile), 0.125 µg/mL; in data set [4] (isolate 7-7150288, read-out: MIC of clinical isolates of C. difficile) it was 0.125 µg/mL. Besides, the MIC in data set [4] (isolate 7-7150318, read-out: MIC of clinical isolates of C. difficile) is 0.125 µg/mL; in data set [4] (isolate 7-7150628, read-out: MIC of clinical isolates of C. difficile) it was 0.125 µg/mL; in data set [4] (isolate 7-7150997, read-out: MIC of clinical isolates of C. difficile), 0.125 µg/mL; in data set [4] (isolate 7-7151551, read-out: MIC of clinical isolates of C. difficile), 0.25 µg/mL; in data set [4] (isolate 7-7152701, read-out: MIC of clinical isolates of C. difficile), 0.25 µg/mL; in data set [4] (isolate 7-7153872, read-out: MIC of clinical isolates of C. difficile), 0.5 µg/mL. Further, the minimal inhibitory concentration (MIC) in data set [4] (isolate 7-7154712 (listed twice), read-out: MIC of clinical isolates of C. difficile) was found to be 0.25 µg/mL; in data set [4] (isolate 7-7154992, read-out: MIC of clinical isolates of C. difficile) it was 0.25 µg/mL; in data set [4] (isolate 7-7156197, read-out: MIC of clinical isolates of C. difficile), 0.25 µg/mL; in data set [4] (isolate 7-7200552, read-out: MIC of clinical isolates of C. difficile), 0.25 µg/mL; in data set [4] (isolate 7-7363761, read-out: MIC of clinical isolates of C. difficile), 0.125 µg/mL; in data set [4] (isolate 12055, read-out: MIC of clinical isolates of C. difficile), 0.125 µg/mL. Besides, the minimum inhibitory concentration (MIC) in data set [4] (isolate 12060, read-out: MIC of clinical isolates of C. difficile) worked out at 0.125 µg/mL; in data set [4] (isolate 12061, read-out: MIC of clinical isolates of C. difficile), 0.06 µg/mL; in data set [4] (isolate 12062, read-out: MIC of clinical isolates of C. difficile) it was 0.06 µg/mL; in data set [4] (isolate 12063, read-out: MIC of clinical isolates of C. difficile) it was 0.06 µg/mL; in data set [4] (isolate 12064, read-out: MIC of clinical isolates of C. difficile), 0.06 µg/mL; in data set [4] (niclosamide, matches Table 2, read-out: Highest MIC observed) it was 0.5 µg/mL (≈ 1.53 µM). The molecule further gave an MIC90 in data set [4] (footnote b: data from tables herein) of 0.06 to 0.25 µg/mL (≈ 0.183 to 0.764 µM). The solubility in water entry in data set [5] was “poorly soluble in water”.

In the case of `CN[C@H](CC(C)C)C(=O)N[C@H]1C(=O)N[C@@H](CC(N)=O)C(=O)N[C@H]2C(=O)N[C@H]3C(=O)N[C@H](C(=O)N[C@H](C(=O)O)c4cc(O)cc(O)c4-c4cc3ccc4O)[C@H](O)c3ccc(c(Cl)c3)Oc3cc2cc(c3O[C@@H]2O[C@H](CO)[C@@H](O)[C@H](O)[C@H]2O[C@H]2C[C@](C)(N)[C@H](O)[C@H](C)O2)Oc2ccc(cc2Cl)[C@H]1O` [Vancomycin], in data set [6], the “expected MIC of reference control strain” value is 1 µg/mL. For the same molecule, in data set [7], the “Highest MIC observed” value was 16^a μg/mL and the MIC90 is given as 2^a μg/mL. Moreover, the MIC in data set [4] (read-out: C. difficile Strain 7-6011209 MIC) was determined as 0.125 µg/mL (≈ 0.0863 µM). Further, in data set [4] (read-out: C. difficile Strain 12055 MIC), the MIC stood at 0.25 µg/mL (≈ 0.173 µM).

These data come from patent US11529361B2, “Halogenated salicylanilides for treating Clostridium infections” (UNION therapeutics A/S, priority 2015, dated 2022).
